Consider one compound from patent publication US20240374631A1, “A COMPOSITION FOR IMPROVING GUT MICROBIOTA, BEHAVIOURAL PATTERN, ALPHA-SYNUCLEIN LEVELS, SLEEP PATTERN AND/OR SERUM MELATONIN” (GN Corporation Co Ltd, priority 2021, published 2024).

The test concerns α-synuclein on the neuroblastoma cell line (SHSY-5Y Tet-On: SCC291). Kind of test: Expression of α-synuclein on neuroblastoma cell line stimulated with beta-glucan or PMA (glutaraldehyde-fixed cellular ELISA, 3 days). To be noted: BG-AF202 50 μg/mL, PMA 500 ng/mL. Format: cell-based. As to the method:
Neuroblastoma cell line (SHSY-5Y Tet-On: SCC291) (MERCK) was suspended in 10% FCS-DMEM/F12 medium and seeded into 96-well microplates to achieve a cell count of 5×10^4 cells/well. After 24 hours of incubation, the cells were washed with 10% FCS-DMEM/F12 medium and new 10% FCS-DMEM/F12 medium was added.
Then, β-glucan AFO-202 (50 μg/mL) and PMA (500 ng/mL) (Sigma) were added to the medium, and the cells were cultured for 1 to 3 days. After incubation, the wells were washed three times with PBS and fixed in 0.25% glutaraldehyde-PBS for 1 hour at room temperature. After fixation, the wells were washed three times with PBS-0.05% Tween (PBS-T). After washing the wells with PBS-T, 50 μL of 500-fold diluted α-synuclein polyclonal rabbit antibody (proteintech Co. 10842-1-AP) was added to the wells and incubated at room temperature for 1 h. Then, 2% BSA-PBS-T was added and left for 1 h (to block non-specific reactions).
After 1 hour, the wells were washed with PBS-T and 50 μL of biotin-labeled anti-rabbit IgG antibody (Cosmo Bio) diluted 5,000-fold was added to the wells and the reaction was carried out for 40 minutes at room temperature. […]
After that, the absorbance (OD value) was measured with a microplate reader (450 nm) (Tosoh). Data were expressed as […] value (sample OD value−blank OD value). The expression rate was calculated based on the control (None). […]
A general note: ELISA stands for enzyme-linked immunosorbent assay.

Regarding `CCCCCCCCCCCCCC(=O)O[C@@H]1[C@@H](C)[C@@]2(O)[C@@H](C=C(CO)C[C@]3(O)C(=O)C(C)=C[C@@H]23)[C@@H]2C(C)(C)[C@]12OC(C)=O` [PMA], the “α-synuclein expression (%) vs. None” value was found to be 50.1%. For the setting “None 0.281”, this compound came in with a δOD value of 0.166.
